{"source": "patent US10813929B2", "about": "“Treating cancer with ATR inhibitors” (VERTEX PHARMACEUTICALS INCORPORATED, priority 2011, dated 2020)", "key": {"[1]": {"system": "DNA damage foci and RAD51 foci", "assay": "Nuclear foci analysis (γH2AX, 53BP1, RAD51)", "format": "cell-based", "details": "1 μM VE-821, 6 Gy", "protocol": "Cells were treated with 1 μM VE-821 at various time points in relation to 6 Gy irradiation, as indicated, and fixed at 24 h post-irradiation. Subsequently, cells were stained for (A) γH2AX and (B) 53BP1 foci and the percentage of cells with more than 7 and 5 foci per cell was quantitated, respectively. C, for analysing Rad51 foci formation, cells were fixed at 6 h post-irradiation and the percentage of cells with more than 9 foci per cell was quantitated. Representative images are shown on the right (n=3). *, P<0.05 Cells growing in 96-well plates were treated with 1 μM VE-821 drug 1 h prior to 6 Gy irradiation and fixed in 3% formaldehyde at multiple time points. Cells were subsequently pearmeabalised and blocked in PBS with 0.1% Triton 1% BSA (w/v). Cells were incubated with primary antibody overnight at 4° C. and after a PBS wash incubated with fluorescently labeled secondary antibody followed gy a PBS wash and nuclear staining with DAPI. Images were acquired and foci quantitated using an IN Cell Analyzer 1000 automated epifluorescence microscope and analysis software (GE Healthcare, Cahlfont St. Giles, UK)"}, "[2]": {"system": "PSN-1, Panc-1, MiaPaCa-2 pancreatic cancer cell lines", "assay": "Cell viability assay (Alamar Blue) with irradiation, tumour cells", "format": "cell-based", "details": "VE-821 for 96 h with or without 4 Gy; viability after 8 days; FIG. 1 panel B", "protocol": "PSN-1, Panc-1, MiaPaCa-2 pancreatic cancer cell lines and MRCS fibroblasts were treated with increasing concentrations of VE-821 for 96 h combined with or without 4 Gy radiation at 1 h after VE-821 addition. Cell viability was measured after 8 days and shown as normalized to DMSO-treated cells. MiaPaCa-2, PSN-1, Panc1 and MRCS cells (5×104) were plated in 96-well plates and after 4 h treated with increasing concentrations of VE-821 at 1 h before irradiation with a single dose of 6 Gy. Medium was replaced 96 h post-irradiation at which point viability was measured using the using the Alamar Blue assay (Resazurin substrate, SIGMA). Cells were allowed to proliferate and cell viability was again analyzed at day 8 for the different treatment conditions. Cell viability and surviving fraction were normalized to the untreated (control) group."}, "[3]": {"system": "PSN-1 pancreatic cancer xenograft", "assay": "PSN-1 pancreatic cancer xenograft model with ionizing radiation", "format": "in vivo", "details": "PSN-1 xenograft; FIGS. 14 and 15"}, "[4]": {"system": "primary adenocarcinoma NSCLC xenograft", "assay": "Primary adenocarcinoma NSCLC xenograft model", "format": "in vivo, SCID mice", "details": "VE-822 60 mg/kg po qd4 with cisplatin 1 or 3 mg/kg ip q7d; FIG. 20", "protocol": "Tumor tissue was excised from a patient with a poorly differentiated adenocarcinoma. This tumor tissue was implanted subcutaneously in the flank of a SCID mouse and passaged twice before compound testing. For compound testing passage-two tumor tissue was implanted subcutaneously in the flank of SCID mice and tumors grown to a volume of about 200 mm^3 Cisplatin was dosed alone at either 1 or 3 mg/kg ip, once per week (ip, q7d, on day 2 of each week) for two weeks. VE-822 was dosed as a solution alone at 60 mg/kg po on 4 consecutive days per weekly cycle (qd4, dosed on days 1, 2, 3 and 4 each week). Two combination groups received cisplatin at 1 or 3 mg/kg plus VE-822 at 60 mg/kg po on the same schedule as the single agent group. A control group received vehicle alone (10% Vitamin E TPGS in water, po qd4). All drug treatment was stopped on Day 28. Vehicle, cisplatin (1 mg/kg) and VE-822 (60 mg/kg) groups were sacrificed and the remainder monitored for a further 40 days to assess tumor re-growth.\nData are mean±sem, n=9-10. […]"}, "[5]": {"system": "panel of 35 human lung cancer cell lines", "assay": "Lung cancer cell screen, CellTiter-Glo cell viability assay", "format": "cell-based", "details": "96 hours", "protocol": "All cell lines were seeded in 30 μl of tissue culture medium containing 10% FBS into 384-well opaque-bottom assay plates. The seeding density was based on the logarithmic growth rate of each cell line. After 24 hours, compound stock solutions were added to each well to afford a matrix consisting of 5 concentrations for VE-822 and 6 concentrations for chemotoxics. Each well contains either, agent alone or a combination of both agents. The final concentration range for VE-822 was 25 nM-2 μM. The concentration ranges for the chemotoxics were as follows: Etoposide, 10 nM-10 μM; Gemcitabine, 0.16 nM-160 nM; Cisplatin, 20 nM-20 μM; Oxaliplatin, 40 nM-40 μM; Irinotecan (SN-38), 0.12 nM-120 nM. The cells were then incubated for 96 hours at 37° C. in an atmosphere of 5% CO2 and 95% humidity.\nThis assay measures the number of viable cells in a culture based on the quantitation of ATP, which is present in metabolically active cells.\nCellTiter-Glo Reagent (Promega, Madison, Wis., USA) was prepared according to the manufacturer's instructions and added 96 hours after compound addition (25 μl/well) to measure cell viability. Luminescence signal was measured with the PHERAStarFS (BMG Labtech, Cary, N.C., USA) automated plate reader. […]\nRaw luminescence CellTiter-Glo (CTG) values were normalized to the mean CTG value for the negative control DMSO-treated samples on each assay plate. […]"}}}
{"molecule": "CS(=O)(=O)c1ccc(-c2cnc(N)c(C(=O)Nc3ccccc3)n2)cc1", "note": "[VE-821]", "values": [{"measurement": "RAD51 foci formation", "setting": "[1]; fixed 6 h post-irradiation, FIG. 5", "value": "reduces RAD51 foci formation"}, {"measurement": "53BP1 and γH2AX foci number", "setting": "[1]; fixed 24 h post-irradiation, FIG. 5", "value": "increases 53BP1 and γH2AX foci number"}, {"measurement": "repair of DNA damage by homologous recombination", "setting": "[1]; FIG. 5 panels A, B, C", "value": "inhibits repair of DNA damage by homologous recombination"}, {"measurement": "radiosensitisation of pancreatic tumour cells (cell viability)", "setting": "[2]", "value": "radiosensitises pancreatic tumour cells"}]}
{"molecule": "CNCc1ccc(-c2cc(-c3nc(-c4ccc(S(=O)(=O)C(C)C)cc4)cnc3N)on2)cc1", "note": "[VE-822]", "values": [{"measurement": "antitumor effects of ionizing radiation (tumor volume over time)", "setting": "[3]", "value": "enhances the antitumor effects of ionizing radiation"}, {"measurement": "antitumor effects of cisplatin (tumor volume)", "setting": "[4]", "value": "enhances the antitumor effects of cisplatin"}, {"measurement": "synergy with chemotoxics across lung cancer cell lines", "setting": "[5]; maximum shift in IC50 of each chemotoxic, FIG. 16", "value": "Synergizes with Chemotoxics"}, {"measurement": "synergy (shift in IC50 of chemotoxic) in lung cancer cell lines", "setting": "[5]; with cisplatin, etoposide, gemcitabine, oxaplatin and irinotecan, FIG. 17", "value": "greater than 3 fold"}]}
